Test results as given in patent US4801613A, “Bradykinin antagonist peptides” (Nova Technology Limited Partnership, priority 1987, dated 1989).
Read-outs that look alike come from different tables or passages of the source. Non-standard residues stand in square brackets, D forms with d. Residues, ends and D or L forms follow the SMILES beside them. No end group written: not given here. 2Thi = N[C@@H](Cc1cccs1)C(=O)O

Columns and labels:
kininases [1] = details: rat, in vivo
kininases [2] = details: anesthetized rat; single pass in the pulmonary circulation
isolated rat uterus = type: cell-based
Protocol: (§1) The bradykinin antagonists were assayed on isolated rat uterus in natural or induced estrus and on guinea pig ileum, according to the commonly accepted assay methods for bradykinin and related kinins as described by Trautschold (Handbook of Expt. Pharmacol. Vol. 25, Springer Verlag, pp 53-55, 1970) for inhibition of the myotropic activity of bradykinin. The inhibition potencies, as determined according to the commonly accepted manner described by Schild for antagonists of biologically active compounds (Br. J. Pharmacol. 2:189, 1947), are determined on isolated rat uterus (RUT) and isolated guinea pig ileum (GPI). In the assays, a dose-response curve is determined for the reference substance bradykinin. The dose of bradykinin which produced a half maximal contraction of tissue is the ED50 dose. An amount of bradykinin equivalent to twice the ED50 dose is administered to the tissue 30 seconds after the start of incubation of the tissue with a dose of antagonist. Doses of antagonist are increased in this protocol until pre-incubation with a dose of antagonist reduces the contraction in response to the double ED50 dose of bradykinin to response of a single ED50 dose of bradykinin. The pA2 value represents the negative logarithm of the molar concentration of antagonist necessary to reduce the response of a double ED50 dose of bradykinin to that of an ED50 dose. One unit of pA2 value represents an order of magnitude change in potency. For comparison, the negative log of the dose of BK, the dose which causes half maximal contraction of the tissues, is commonly known as the pD2 value. The pD2 value for bradykinin is 7.9 on the rat uterus and 7.4 on the guinea pig ileum.

[3] = test system: isolated guinea pig ileum; type: cell-based
Protocol: as §1
(§2) In each case, as shown, the BK-related antagonists inhibited contractions produced by BK-related agonists, but had no effect on the non-kinin myotropic peptide substances. The inhibition potencies are listed as pA2 values as described above.

kininases [4] = details: anesthetized rat; Roblero, Ryan and Stewart 1973; cited from earlier work
[5] = Ferreira & Vane 1967; cited from earlier work
guinea pig ileum = type: cell-based
Protocol: as §1, §2

N=C(N)NCCC[C@@H](N)C(=O)N[C@@H](CCCNC(=N)N)C(=O)N1CCC[C@H]1C(=O)N1CCC[C@H]1C(=O)NCC(=O)N[C@@H](Cc1ccccc1)C(=O)N[C@@H](CO)C(=O)N1CCC[C@H]1C(=O)N[C@@H](Cc1ccccc1)C(=O)N[C@@H](CCCNC(=N)N)C(=O)O [DArg--BK] (H-[dR]RPPGFSPFR-OH)
% DESTRUCTION (kininases [1]): 92%

N=C(N)NCCC[C@H](NC(=O)[C@H](Cc1cccs1)NC(=O)[C@@H]1CCCN1C(=O)[C@H](CO)NC(=O)[C@H](Cc1cccs1)NC(=O)CNC(=O)[C@@H]1CCCN1C(=O)[C@@H]1CCCN1C(=O)[C@@H](N)CCCNC(=N)N)C(=O)O [Thi^5,8 --BK] (H-RPPG[2Thi]SP[2Thi]R-OH)
% DESTRUCTION (kininases [2]): 95%

RPPGFSPFR [Bradykinin (BK), Arg-Pro-Pro-Gly-Phe-Ser-Pro-Phe-Arg]
pD2 value (negative log of dose causing half maximal contraction) (isolated rat uterus; rat uterus): 7.9
pD2 value (negative log of dose causing half maximal contraction) ([3]; guinea pig ileum): 7.4
destruction on a single passage through the pulmonary circulation (kininases [4]): 98-99%
half life in the systemic circulation [5]: less than 30 seconds
% DESTRUCTION (kininases [2]): 98%

N=C(N)NCCC[C@H](NC(=O)[C@H](Cc1ccccc1)NC(=O)[C@@H](Cc1ccccc1)NC(=O)[C@H](CO)NC(=O)[C@H](Cc1ccccc1)NC(=O)CNC(=O)[C@@H]1CCCN1C(=O)[C@@H]1CCCN1C(=O)[C@@H](N)CCCNC(=N)N)C(=O)O [Example 1, Arg-Pro-Pro-Gly-Phe-Ser-DPhe-Phe-Arg] (H-RPPGFS[dF]FR-OH)
RUT AG = agonist potency relative to BK = 100 (isolated rat uterus): 1%
GUINEA PIG ILEUM KAL (pA2) (guinea pig ileum): 5.6
GUINEA PIG ILEUM MK--BK (pA2) (guinea pig ileum): 6.0
GUINEA PIG ILEUM BK (pA2) [3]: 5.0

NCCCC[C@H](N)C(=O)N[C@@H](CCCN=C(N)N)C(=O)N1CCC[C@H]1C(=O)N1CCC[C@H]1C(=O)NCC(=O)N[C@@H](Cc1ccccc1)C(=O)N[C@@H](CO)C(=O)N1CCC[C@H]1C(=O)N[C@@H](Cc1ccccc1)C(=O)N[C@@H](CCCN=C(N)N)C(=O)O [Lys--BK]
% DESTRUCTION (kininases [1]): 95%

N=C(N)NCCC[C@H](NC(=O)[C@H](Cc1ccccc1)NC(=O)[C@@H]1CCCN1C(=O)[C@H](CO)NC(=O)[C@H](Cc1ccccc1)NC(=O)CNC(=O)[C@@H]1CCCN1C(=O)[C@@H]1CCCN1C(=O)[C@H](CCCNC(=N)N)NC(=O)[C@H](N)CCCCN)C(=O)O [DLys--BK]
% DESTRUCTION (kininases [1]): 89%

N=C(N)NCCC[C@H](NC(=O)[C@H](Cc1cccs1)NC(=O)[C@@H]1CCCN1C(=O)[C@H](CO)NC(=O)[C@H](Cc1cccs1)NC(=O)CNC(=O)[C@@H]1CCCN1C(=O)[C@@H]1CCCN1C(=O)[C@H](CCCNC(=N)N)NC(=O)[C@H](CCCCN)NC(=O)[C@@H](N)CCCCN)C(=O)O [Lys--Lys--Thi^5,8 --BK] (H-KKRPPG[2Thi]SP[2Thi]R-OH)
% DESTRUCTION (kininases [2]): 0%

N=C(N)NCCC[C@H](NC(=O)[C@H](Cc1ccccc1)NC(=O)[C@@H]1CCCN1C(=O)[C@H](CO)NC(=O)[C@H](Cc1ccccc1)NC(=O)CNC(=O)[C@@H]1CCCN1C(=O)[C@@H]1CCCN1C(=O)[C@H](CCCNC(=N)N)NC(=O)[C@H](CCCCN)NC(=O)[C@@H](N)CCCCN)C(=O)O [Lys--Lys--BK]
% DESTRUCTION (kininases [1]): 0%
